Results: patent US10125168B2, “Synthetic peptide for adjusting balance between presence of type 1 TNF receptor and type 2 TNF receptor and use thereof” (TOAGOSEI CO., LTD., priority 2012, dated 2018)

How the values were obtained:
TNF-R1 [1] = test: Immunofluorescence / flow cytometry of TNF-R1 presence in human SK-N-SH cells supplied with peptide; assay type: cell-based; conditions: human cell line SK-N-SH, retinoic acid induction, peptide 5 μM, two days; fluorescence intensity relative to control group = 1 (FIG. 2)
Protocol: The activities of the respective peptides synthesized in Example 1 above were tested with cultured cells of a human neuroblastoma cell line (SK-N-SH). The control group was supplied with no peptides. The test details are described below.
Firstly, each peptide synthesized in Example 1 above was dissolved in DMSO to prepare a stock solution having a peptide concentration of 4 mM.
The SK-N-SH cell line was then seeded in a 4 mL fraction in a culture dish of 6 cm diameter at a density of 1.5×10^5 cells/mL and incubated overnight in a general DMEM culture medium (with 10% FBS (a Hyclone product, KSD), 2 mM L-glutamine, 50 unit/mL penicillin, and 50 μg/mL streptomycin) at 37° C. in a CO2 incubator at 5% CO2. Due to a low cell density, incubation was carried on for one more days.
After incubated over two nights, the culture medium was replaced with a fresh DMEM culture medium (with 2% FBS, 20 μM retinoic acid, 2 mM L-glutamine, 50 unit/mL penicillin, and 50 μg/mL streptomycin). Incubation was carried on for five days under the same conditions to effect retinoic acid induction.
Subsequently, the culture medium was replaced with a DMEM culture medium containing a peptide (TNF-R2 upregulating peptide or TNF-R2 downregulating peptide) in an amount equivalent to 5 μM, in addition to 2% FBS, 20 μM retinoic acid, 2 mM L-glutamine, 50 unit/mL penicillin and 50 μg/mL streptomycin (also containing 5 μL of DMSO at this point). Incubation was carried on under the same conditions for two days.
The control group (group supplied with no peptide) was incubated for two days in a DMEM culture medium (with 2% FBS, 20 μM retinoic acid, 20 μM retinoic acid, 2 mM L-glutamine, 50 unit/mL penicillin, and 50 μg/mL streptomycin) supplied only with the aforementioned amount of DMSO, without any added peptide.
After completion of the incubation, cultured cells in each test group were collected and divided into certain test tubes in fractions having the same number of cells. By the immunofluorescence technique described below, the change in the balance between the presence of TNF-R1 and TNF-R2 was then assessed in each test group (group supplied with TNF-R2 upregulating peptide, group supplied with TNF-R2 downregulating peptide).
More specifically, in each test group, for the TNF-R1 measurement, an anti-TNF-R1 mouse polyclonal antibody (a Santa Cruz Biotechnology Inc. product, SC-52739) was added to the respective test tubes to a final concentration of 2×10^−3 mg/mL and incubation was carried out under ice-cold conditions for a prescribed time period. As a secondary antibody, a goat anti-mouse IgG antibody (an Invitrogen product, A10029) labeled with a fluorescent dye (Alexa® 488) was added to the test tubes to a final concentration of 4×10^−3 mg/mL and incubation was carried out under ice-cold conditions for a prescribed time period.
In the same manner as Example 2 above, the fluorescence intensities of cells were measured with a flow cytometer. For both TNF-R1 and TNF-R2, the fluorescence intensities are shown as relative values with the fluorescence intensities of TNF-R1 and TNF-R2 in the control group (group supplied with no peptide) being 1, respectively.

TNF-R1 [2] = test: Immunofluorescence / flow cytometry of TNF-R1 presence in mouse Neuro 2a cells supplied with peptide; assay type: cell-based; conditions: mouse cell line Neuro 2a, retinoic acid induction, peptide 5 μM, two days; fluorescence intensity relative to control group = 1 (FIG. 1)
Protocol: The activities of the peptides of Sample 1 and Sample 6 synthesized in Example 1 above were tested with cultured cells of a mouse […], neuroblastoma cell line (Neuro 2a). The control group was supplied with no peptides. The test details are described below.
Firstly, each peptide synthesized in Example 1 above was dissolved in PBS (phosphate buffered saline) to prepare a stock solution having a peptide concentration of 1 mM (with a small amount of dimethyl sulfoxide (DMSO)). […]
After completion of the incubation, cultured cells in each test group were collected and divided into certain test tubes in fractions having the same number of cells. By the immunofluorescence technique described below, the change in the balance between the presence of TNF-R1 and TNF-R2 was then assessed in each test group (group supplied with TNF-R2 upregulating peptide, group supplied with TNF-R2 downregulating peptide). […]
The fluorescence intensities of cells were measured with a flow cytometer (a Millipore system product, Guava® easyCyte 8HT). For both TNF-R1 and TNF-R2, the fluorescence intensities are shown as relative values with the fluorescence intensities of TNF-R1 and TNF-R2 in the control group (group supplied with no peptide) being 1, respectively.

| Sequence | presence of TNF-R1 (TNF-R1 [1]) | presence of TNF-R1 (TNF-R1 [2]) |
| --- | --- | --- |
| MAPAALWVALVFELQLWATGHT (listed as Mus musculus) [Sample 7, TNF-R2 downregulating peptide; mouse TNF-R2 signal peptide motif, linear, 22 amino acid residues] | no significant change |  |
| MAPVAVWAALAVGLELWAAAHA (listed as Homo sapiens) [Sample 6, TNF-R2 downregulating peptide; human TNF-R2 signal peptide motif, linear, 22 amino acid residues] | no significant change | no significant change |
| MGLPTVPGLLLSLVLLALLMG (listed as Mus musculus) [Sample 2, TNF-R2 upregulating peptide; mouse TNF-R1 signal peptide motif, linear, 21 amino acid residues] | no significant change |  |
| MGLSTVPDLLLPLVLLELLVG (listed as Homo sapiens) [Sample 1, TNF-R2 upregulating peptide; human TNF-R1 signal peptide motif, linear, 21 amino acid residues] | no significant change | no significant change |
| MGLSTVPGLLLPLVLRALLVD (listed as Sus scrofa) [Sample 5, TNF-R2 upregulating peptide; pig TNF-R1 signal peptide motif, linear, 21 amino acid residues] | no significant change |  |
